# US20160264593A1 (priority 2013, published 2016)
# Read-outs that look alike come from different tables or passages of the source.
# What was measured:
# [1] = rat, in vivo
# [2] = Microsomal stability, monkey microsomes; type: in vitro ADME; settings: relative to verapamil
# U251 human GBM cells = settings: 100 ip together with radiation, daily for 5 days x 3 courses; 6 months plus follow-up
# Experimental: The mechanism of potentiation is impairment of multiple steps in a DNA-damage repair process and inhibition of exit from mitosis. […] Mice bearing subcutaneous (sc) xenografts of U251 human GBM cells were treated with compound 100 intraperitoneally together with radiation, each given daily for 5 days×3 courses.
# [3] = in vivo
# [4] = rat, in vivo; remark: listed apart in the source
# [5] = Microsomal stability, mouse microsomes; type: in vitro ADME; settings: relative to verapamil
compound,measurement,setting,value
"CN1CCN(C(=O)C2C3CCC(O3)C2C(=O)O)CC1 (stereo not drawn) [Compound 100, 3-(4-methylpiperazine-1-carbonyl)-7-oxa-bicyclo[2,2,1]-heptane-2-carboxylic acid]",passage of the blood brain barrier (BBB) (statement),[1],does not readily pass the blood brain barrier
same,stability in the presence of microsomes,[2],stable relative to verapamil
same,xenografts eliminated,U251 human GBM cells,60%
same,passage of the blood brain barrier (BBB) (statement),[3],does not readily pass the blood brain barrier
same,presence in plasma after oral administration (statement),[4],little is present in plasma
same,stability in the presence of microsomes,[5],stable relative to verapamil
